Assay results from PMC7822874, “Chemoprotective antimalarials identified through quantitative high-throughput screening of Plasmodium blood and liver stage parasites” (Scientific Reports, 2021).
Read-outs that look alike come from different tables or passages of the source.

Key:
in vitro [1] = settings: human, hepg2 cells
in vitro [2] = settings: human, hepg2-a16-cd81egfp cells, % viability
[3] = tested on: P. falciparum Dd2 (clone B2) asexual blood stage parasites; test: P. falciparum Dd2 asexual blood stage SYBR Green-I 72 h proliferation assay (qHTS); assay type: cell-based, Plasmodium falciparum; settings: log10 of AC50 in M; for Pf ABS Log AC50 (M): averaged P. falciparum asexual blood stage potency
[4] = tested on: P. berghei-ANKA-GFP-LucCON liver stage parasites in HepG2-A16-CD81EGFP cells; test: P. berghei liver stage Pb-Luc assay, Method 1 (UCSD, 1536-well); assay type: cell-based, Plasmodium berghei; settings: P. berghei liver stage, averaged response (percent); for Average P. berghei 1 µM response (%): the header list (r8) defines it as the 1 µM dose
HepG2-A16-CD81EGFP cells = settings: averaged response (percent)
[5] = tested on: luciferase-expressing P. berghei liver stage parasites in HepG2 cells; test: Inhibition of liver-stage development assay (ILSDA), Method 2 (WRAIR, 96-well); assay type: cell-based, Plasmodium berghei; settings: Method 2, dose response; for AC50: Plasmodium berghei, HepG2, P. berghei liver stage
[6] = HepG2, the header list (r10) describes it as the 1 µM dose

SMILES | CC50 at 48 h (in vitro [1]) | viability at 3 µM (in vitro [2]) | Pf ABS Log AC50 (M) [3] | Average P. berghei 3 µM response( %) [4] | Average P. berghei 1 µM response (%) [4] | Average HepG2 3 µM response( %) (HepG2-A16-CD81EGFP cells; HepG2, 3 µM dose) | Average HepG2 3 µM response( %) (HepG2-A16-CD81EGFP cells; [6]) | Activity direction (Decrease / Inactive) ([5]; P. berghei liver stage) | AC50 ([5]; read-out: AC50) | AC50 ([5]; read-out: Log AC50 (converted)) | AC50 ([3]; Plasmodium falciparum, DD2, averaged P. falciparum asexual blood stage potency, read-out: Pf ABS Log AC50 (converted))
O=C(Nc1ccc(Cl)cc1)c1nc2c(o1)CCN(Cc1ccc(F)cc1F)CC2 [NCGC00413332-01] | > 57 µM | – | – | – | – | – | – | – | – | – | –
COCC(=O)N[C@H]1C[C@@H](Cc2cc(-c3ccc(OC)cc3)on2)C1(C)C [NCGC00395450-01] | > 57 µM | – | – | – | – | – | – | – | – | – | –
O=c1c2nc(-c3cccc(O)c3)ccc2ncn1C1CC1 [NCGC00414734-01] | > 57 µM | – | – | – | – | – | – | – | – | – | –
O=C(c1ccc(-c2ncc3cnc(-c4cccc(F)c4)cn23)cc1)N1CCc2cccnc21 [NCGC00414026-01] | > 57 µM | – | – | – | – | – | – | – | – | – | –
C=C(C)CSc1nc2sc3c(c2c(=O)n1-c1ccc(C)cc1)CCN(C)C3 [MLS001173676] | – | 86.9% | -5.800 M | 59% | 87% | 87% | 97% | – | – | – | –
COc1ccc(-[n+]2c(-c3ccc(Br)cc3)cn3c2CCc2ccccc2-3)cc1.[Br-] [MLS000391920] | – | 65.4% | -5.612 M | 11% | 57% | 65% | 95% | – | – | – | –
COc1ccc(CN2C[C@@H](F)[C@@H](OCc3nc4cc(C)ccc4[nH]3)C2)cc1 [NCGC00393009-01] | > 57 µM | – | – | – | – | – | – | – | – | – | –
Cc1ccc(NC2=C(N3CCCCC3)C(=O)c3ccccc3C2=O)cc1 [MLS000532222] | – | 76.9% | -6.600 M | 14% | 71% | 77% | 99% | – | – | – | –
O=C1C(Nc2ccccc2)=C/C(=N\S(=O)(=O)c2cccs2)c2ccccc21 [MLS000374486] | – | 86% | -6.462 M | 34% | 65% | 86% | 101% | – | – | – | –
O=c1[nH]c(N2CCOCC2)nc2c1CCN(Cc1ccc(Cl)cc1F)CC2 [NCGC00440653] | – | – | – | 41% | 39% | 102% | 102% | Decrease | 0.112 µM | 0.112 µM | 3.35 µM
COc1ccc(Nc2cc(C)c3ccc(O)cc3n2)cc1 [MLS000674789] | – | 96.2% | -6.187 M | 118% | 103% | 96% | 88% | – | – | – | –
Cc1cc(N2CCN(C3CCCC3)CC2)n2c(nc3ccccc32)c1C#N [MLS000039270] | – | 89.8% | -6.262 M | 94% | 106% | 90% | 89% | – | – | – | –
O=C(Nc1ccc(Nc2ccncc2)cc1)c1ccc(Nc2ccnc3ccc([N+](=O)[O-])cc23)cc1 [MLS000766132] | – | 90.3% | -6.337 M | 96% | 114% | 90% | 92% | – | – | – | –
Cc1cccc(-c2cc3nc(C)c(C)c(NCCCn4ccnc4)n3n2)c1 [MLS000529525] | – | 87.2% | -5.512 M | 119% | 131% | 87% | 97% | – | – | – | –
CCCCc1c(C)c(C#N)c2nc3ccccc3n2c1Nc1c(C)n(C)n(-c2ccccc2)c1=O [MLS000555448] | – | 90.2% | -5.662 M | 121% | 128% | 90% | 93% | – | – | – | –
Cc1nn(-c2ccccc2)c(C)c1/C=N/Nc1nc2ccccc2[nH]1 [MLS000332160] | – | 87.3% | -6.012 M | 43% | 83% | 87% | 92% | – | – | – | –

SMILES | CC50 at 48 h (in vitro [1]) | viability at 3 µM (in vitro [2]) | Pf ABS Log AC50 (M) [3] | Average P. berghei 3 µM response( %) [4] | Average P. berghei 1 µM response (%) [4] | Average HepG2 3 µM response( %) (HepG2-A16-CD81EGFP cells; HepG2, 3 µM dose) | Average HepG2 3 µM response( %) (HepG2-A16-CD81EGFP cells; [6]) | Activity direction (Decrease / Inactive) ([5]; P. berghei liver stage) | AC50 ([5]; read-out: AC50) | AC50 ([5]; read-out: Log AC50 (converted)) | AC50 ([3]; Plasmodium falciparum, DD2, averaged P. falciparum asexual blood stage potency, read-out: Pf ABS Log AC50 (converted))
O=C(CCl)Nc1ccc(Oc2cnc3ccccc3n2)cc1 [MLS000327546] | – | 90.9% | -5.812 M | 121% | 109% | 91% | 88% | – | – | – | –
CC(C)N(Cc1ccccc1)C(=O)CN1C(=O)COc2ccc([S+](=O)([O-])N3CCCCCC3)cc21 [NCGC00123222] | – | 93.6% | -6.100 M | 127% | 105% | 94% | 99% | – | – | – | –
COc1ccc(-c2c[n+](-c3ccccc3)c3n2CCS3)cc1 [MLS000587970] | – | 88.3% | -5.712 M | 31% | 92% | 88% | 97% | – | – | – | –
CCc1ccccc1OC[C@@H](O)CN[C@@H]1CCCc2ccccc21 [NCGC00025196] | – | 91.7% | -5.800 M | 77% | 73% | 92% | 95% | – | – | – | –
Cn1nc(C(F)(F)F)c(-c2ccc(F)cc2)c1NC(=O)Nc1ccc(F)cc1 [MLS000830769] | – | 99% | -5.962 M | 90% | 148% | 99% | 95% | – | – | – | –
CCN(CC)Cc1cc2[nH]c3c4ccc(Cl)cc4ncc3c2cc1OC [MLS000757007] | – | 101% | -6.700 M | 134% | 108% | 101% | 105% | – | – | – | –
C/C(=N\Nc1ncnc2sc(C)c(C)c12)c1ccccn1 [MLS001176565] | – | 40.2% | -5.912 M | 5.49% | 9% | 40% | 52% | – | – | – | –
O=C(Nc1ncccc1O)c1ccc(NS(=O)(=O)c2ccc3[nH]c(=O)[nH]c3c2)cc1 [MLS001138628] | – | 91% | -6.437 M | 23% | 59% | 91% | 105% | – | – | – | –
N#Cc1c(N2CCN(c3ccc(F)cc3)CC2)nc(N)c2c(N)nc3c(c12)CC(=O)N3C1CC1 [MLS001003889] | – | 89.7% | -6.262 M | 50% | 101% | 90% | 102% | – | – | – | –
CCN(CC)CCN1C(=O)c2ccccc2NC1c1ccc(N(C)C)cc1 (stereo not shown) [MLS000554078] | – | 95.7% | -5.612 M | 84% | 102% | 96% | 103% | – | – | – | –
CN(C(Cc1ccc(O[S+](=O)([O-])c2cccc3cnccc23)cc1)C(=O)N1CCN(c2ccccc2)CC1)[S+](=O)([O-])c1cccc2cnccc12 (stereo not shown) [NCGC00163381] | – | 79.2% | -6.300 M | 77% | – | 79% | 87% | – | – | – | –
Cc1cc(Nc2ccc(C)c(C)c2)n2nc(C)nc2n1 [MLS000116616] | – | 90.3% | -5.712 M | 39% | 76% | 90% | 91% | – | – | – | –
Cc1ccc(O)c(-c2cc(C(=O)Nc3ccc([S+](=O)([O-])N4CC(C)OC(C)C4)cc3)n[nH]2)c1 (stereo not shown) [NCGC00071593] | – | 97% | -6.150 M | 65% | 89% | 97% | 100% | – | – | – | –
NC1=NC[C@@H](Cc2ccc(O)cc2)N1CCCCC1CCCCC1 [MLS000888822] | – | 97.6% | -5.487 M | 40% | 86% | 98% | 113% | – | – | – | –
COc1ccc(-c2cc3nc4c(c(=O)n3[nH]2)CN(C(=O)c2ccc(Cc3c(C)noc3C)o2)CC4)cc1 [NCGC00440331-01] | 0.685 µM | – | – | – | – | – | – | – | – | – | –
COc1ccc(C2c3[nH]c4ccccc4c3C[C@H]3C(=O)N(C4CCN(Cc5ccccc5)CC4)CC(=O)N23)cc1OC (stereo partly shown) [MLS001215281] | – | 90.3% | -5.612 M | 73% | 94% | 90% | 101% | – | – | – | –
